Data as given in patent publication US20240390295A1, “METHODS FOR TREATING DEPRESSION” (JANSSEN PHARMACEUTICA NV, priority 2020, published 2024).

Assays:
Format in all cases: in vivo, human
[1] = system: adult patients (aged 18-64 years) with TRD; assay: CADSS-defined dissociation (CADSS total score >4); conditions: for mean individual CADSS scores at recurrence: across follow-up timeframes
Source text: One of skill in the art would readily be able to measure a patient's adverse events from experience and one or more tools utilized to make such assessments. For example, the Clinician-Administered Dissociative States Scale (CADSS) is an technique utilized to measure present-state dissociative symptoms, and, thus, may be utilized to assess treatment-emergent dissociative symptoms. The CADSS consists of 23 subjective items, divided into 3 components: Depersonalization (Items 3 to 7, 20, and 23), derealization (Items 1, 2, 8 to 13, 16 to 19, and 21) and amnesia (Items 14, 15, and 22). Participant's responses are coded on a 5-point scale (0=not at all through to 4=extremely). Thus, higher CADSS values represent a worse dissociative state, whereas lower CADSS values are indicative of a mild dissociative state.
(§1) Vital signs, the Clinician-Administered Dissociative States Scale (CADSS), and the Modified Observer's Assessment of Alertness/Sedation (MOAA/S) were assessed at baseline and all treatment sessions (predose, and at 40 minutes, 1 hour [vital signs only unless spontaneously reported by the patient], and 1.5 hours postdose). Routine blood pressure (BP) readings were conducted at each treatment session, with elevations reported as AEs based on the clinician's judgement. The CADSS assessed treatment-emergent dissociative symptoms and consists of 23 questions, each coded on a 5-point scale (0=not at all, 1-mild, 2-moderate, 3=severe, 4-extreme), yielding a total score 0-92.11 A CADSS total score >4 indicated the presence of dissociative symptoms. The MOAA/S assessed treatment-emergent sedation: scores range from (=no response to painful stimulus to 5=readily responds to name spoken in normal tone. Any decrease in MOAA/s from pre-dose (score <5) indicated some degree of sedation. An abnormal elevation in BP was defined as systolic BP ≥180 mmHg and ≥20 mmHg higher than baseline and/or diastolic BP ≥105 mmHg and ≥15 mmHg greater than baseline.
(§2) This analysis included any treatment sessions in which patients received ESK (either open-label or blinded). The occurrence and severity of AEs were assessed within the following timeframes: Month 1 (Week 1 and Weeks 2-4), Month 2 (Weeks 5-8), Months 3-6 and Months 6-12. Severity of clinician-reported AEs were scored as 0 (no AE), 1 (mild), 2 (moderate), and 3 (severe). To examine AEs in individual patients over time, only patients who received at least one ESK dose in the following period were included in the analyses of each respective period. Thus, patient data were retained in (i) Week 1 if the patient received ≥1 ESK dose in Weeks 2-4, (ii) Weeks 2-4 if the patient received ≥1 ESK dose in Weeks 5-8, (iii) Weeks 5-8 if the patient received ≥1 ESK dose in Months 3-6, and (iv) Months 3-6 if the patient received ≥1 ESK dose in Months 6-12.

[2] = system: adult patients (aged 18-64 years) with TRD; assay: Severity of recurrent clinician-reported AEs (0 no AE, 1 mild, 2 moderate, 3 severe)
Method: Patients were monitored for >90 minutes after ESK administration at each treatment session, after which time they could leave the clinical site at the clinician's discretion. AEs were monitored and reported, and safety assessments, including clinical laboratory tests and physical examinations, were conducted throughout the study. Clinician-reported AEs were categorized as mild, moderate, or severe based on clinical judgement (Table 1).
as §2
Week 1 and Week 4 were set a priori as index weeks because they are the beginning and end of the induction period. Frequencies and maximum-reported severities of AEs reported during these index weeks served as stratifying variables by which to examine recurrence and severities of AE recurrences in future timeframes.

[3] = system: adult patients (aged 18-64 years) with TRD; assay: MOAA/S-defined sedation (score <5)
Method: For measuring treatment session induced sedation, one of skill in the art may use the Modified Observer's Assessment of Alertness/Sedation Scale (MOAA/S). […] For subjects with a score of 4, the assessment should be repeated every 15 minutes. And for subjects with a score of ≤3, the assessment should be repeated every 5 minutes until the score. In some embodiments, the results of the MOAA/S may be correlated to levels of sedation defined by the American Society of Anesthesiologists (ASA) continuum.
as §1, §2

[4] = Months 3-6, overall rate for timeframe
[5] = Months 6-12, AE twice in Week 1
[6] = Months 6-12, overall rate for timeframe
[7] = Week 1, overall rate for timeframe
[8] = Weeks 2-4, overall rate for timeframe
[9] = Weeks 5-8, overall rate for timeframe
[10] = human, in vivo, other: intranasal

CN[C@]1(c2ccccc2Cl)CCCCC1=O [esketamine, (S)-2-(2-chlorophenyl)-2-(methylamino)cyclohexanone]
CADSS-defined dissociation ([1]; Months 3-6, AE once in Week 1): 42.7%
CADSS-defined dissociation ([1]; Months 3-6, AE twice in Week 1): 61.3%
CADSS-defined dissociation ([1]; Months 3-6, No AE in Week 1): 19.4%
CADSS-defined dissociation [1, 4]: 38.6%
CADSS-defined dissociation ([1]; Months 6-12, AE once in Week 1): 26.8%
CADSS-defined dissociation [1, 5]: 38.7%
CADSS-defined dissociation ([1]; Months 6-12, No AE in Week 1): 15.9%
CADSS-defined dissociation [1, 6]: 25.9%
CADSS-defined dissociation [1, 7]: 56.6%
CADSS-defined dissociation ([1]; Weeks 2-4, AE once in Week 1): 59.1%
CADSS-defined dissociation ([1]; Weeks 2-4, AE twice in Week 1): 88.8%
CADSS-defined dissociation ([1]; Weeks 2-4, No AE in Week 1): 24.8%
CADSS-defined dissociation [1, 8]: 53.1%
CADSS-defined dissociation ([1]; Weeks 5-8, AE once in Week 1): 32.5%
CADSS-defined dissociation ([1]; Weeks 5-8, AE twice in Week 1): 64.6%
CADSS-defined dissociation ([1]; Weeks 5-8, No AE in Week 1): 15.6%
CADSS-defined dissociation [1, 9]: 34.9%
patients with maximum CADSS score >42 [1, 10]: < 3 patients
measure-based dissociation not reported during Week 1, patients ([1]; human, in vivo, other: nasal spray (intranasal), 1 week): 43%
mean individual CADSS scores at recurrence ([1]; maximum CADSS total score <=14): 1.2-1.4
mean individual CADSS scores at recurrence ([1]; maximum CADSS total scores 15-24 and 24-42): 1.3-2.1
clinician-reported dissociation mean recurrence severity score ([2]; AE moderate in Week 1, Months 3-6): 1.4
clinician-reported dissociation mean recurrence severity score ([2]; AE moderate in Week 1, Months 6-12): 1.5
clinician-reported dissociation mean recurrence severity score ([2]; AE moderate in Week 1, Weeks 2-4): 1.5
clinician-reported dissociation mean recurrence severity score ([2]; AE moderate in Week 1, Weeks 5-8): 1.3
clinician-reported dissociation mean recurrence severity score ([2]; AE severe in Week 1, Months 3-6): 1.2
clinician-reported dissociation mean recurrence severity score ([2]; AE severe in Week 1, Months 6-12): 1.6
clinician-reported dissociation mean recurrence severity score ([2]; AE severe in Week 1, Weeks 2-4): 1.5
clinician-reported dissociation mean recurrence severity score ([2]; AE severe in Week 1, Weeks 5-8): 1.8
patients with a severe recurrence ([2]; all clinician-reported AEs except dissociation, any observation period following Week 1 or 4): < 5 patients
patients with a moderate recurrence ([2]; clinician-reported AEs except dissociation, dizziness, vertigo and nausea, any observation period): < 10 patients
reported severity of dissociation, dizziness, nausea, sedation, vertigo, increased blood pressure ([2]; initial incidence and recurrence): mostly mild and rarely severe
clinician-reported dissociation mean recurrence severity score ([2]; no dissociation in Week 1, all timeframes): 1.3
severity of recurrences ([2]; regardless of highest severity in Weeks 1 or 4): mild to moderate
MOAA/S-defined sedation ([3]; Months 3-6, AE once in Week 1): 47.7%
MOAA/S-defined sedation ([3]; Months 3-6, AE twice in Week 1): 74.5%
MOAA/S-defined sedation ([3]; Months 3-6, No AE in Week 1): 23.8%
MOAA/S-defined sedation [3, 4]: 37.5%
MOAA/S-defined sedation ([3]; Months 6-12, AE once in Week 1): 38.3%
MOAA/S-defined sedation [3, 5]: 51.8%
MOAA/S-defined sedation ([3]; Months 6-12, No AE in Week 1): 18.8%
MOAA/S-defined sedation [3, 6]: 28.4%
MOAA/S-defined sedation [3, 7]: 38.1%
MOAA/S-defined sedation ([3]; Weeks 2-4, AE once in Week 1): 65.7%
MOAA/S-defined sedation ([3]; Weeks 2-4, AE twice in Week 1): 95.4%
MOAA/S-defined sedation ([3]; Weeks 2-4, No AE in Week 1): 22.0%
MOAA/S-defined sedation [3, 8]: 44.2%
MOAA/S-defined sedation ([3]; Weeks 5-8, AE once in Week 1): 42.0%
MOAA/S-defined sedation ([3]; Weeks 5-8, AE twice in Week 1): 81.4%
MOAA/S-defined sedation ([3]; Weeks 5-8, No AE in Week 1): 15.8%
MOAA/S-defined sedation [3, 9]: 33.1%
MOAA/S mean recurrence scores ([3]; after Week 1 or Week 4, regardless of highest MOAA/S): 3.5-4.0
MOAA/S mean recurrence score, single patient exception [3, 10]: 3.25
measure-based sedation not reported during Week 1, patients ([3]; human, in vivo, other: intranasal, 1 week): 62%
